Target: T1, Recombinant human GR (Homo sapiens, UniProt P04150)
T1 construct: purchased Invitrogen P2816
T1 sequence (P04150 1-777): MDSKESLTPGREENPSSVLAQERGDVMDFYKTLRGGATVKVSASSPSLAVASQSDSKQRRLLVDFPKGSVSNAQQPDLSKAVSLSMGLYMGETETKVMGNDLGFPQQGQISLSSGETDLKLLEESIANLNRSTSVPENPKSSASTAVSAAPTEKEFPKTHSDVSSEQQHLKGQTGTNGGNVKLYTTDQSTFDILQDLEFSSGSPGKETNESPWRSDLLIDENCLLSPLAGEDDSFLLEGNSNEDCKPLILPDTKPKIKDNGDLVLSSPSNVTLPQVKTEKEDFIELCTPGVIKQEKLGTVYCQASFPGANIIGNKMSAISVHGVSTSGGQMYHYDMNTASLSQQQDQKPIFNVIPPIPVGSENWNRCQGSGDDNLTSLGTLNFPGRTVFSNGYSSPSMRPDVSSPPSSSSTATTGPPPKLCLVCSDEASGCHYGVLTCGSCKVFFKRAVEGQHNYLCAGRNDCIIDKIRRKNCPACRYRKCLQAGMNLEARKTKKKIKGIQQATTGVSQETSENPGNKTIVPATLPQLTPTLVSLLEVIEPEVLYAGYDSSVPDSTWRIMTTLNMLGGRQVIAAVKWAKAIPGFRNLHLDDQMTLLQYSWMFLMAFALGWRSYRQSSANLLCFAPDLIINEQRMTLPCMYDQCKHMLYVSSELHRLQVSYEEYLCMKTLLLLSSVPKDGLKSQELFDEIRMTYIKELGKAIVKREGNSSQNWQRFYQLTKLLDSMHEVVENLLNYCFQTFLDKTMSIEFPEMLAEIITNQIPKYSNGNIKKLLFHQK
Assay: GR competitor assay by fluorescence polarization (binding activity to glucocorticoid receptor)
Conditions: 20 μM test compound solution, 10 μL per well plus 5 μL 4×GS1 and 5 μL 4×GR; 2 to 4 hours at room temperature; ratio of 100% or more is indicated by 100%
Procedure: 1. Evaluation Test for Binding Activity to Glucocorticoid Receptor (hereinafter referred to as “GR”)
In order to evaluate a binding activity to GR, a receptor competitor assay was carried out by a fluorescence polarization method. In the assay, a GR competitor assay kit (manufactured by Invitrogen, cat No. P2816) was used, and a procedure was carried out according to the protocol attached to the kit. Hereinafter, the specific method will be described.
(Preparation of Reagents)
GR screening buffer: A buffer containing 10 mM potassium phosphate (pH 7.4), 20 mM sodium molybdate (Na2MoO4), 0.1 mM ethylene diamine tetraacetic acid (EDTA), 5 mM dithiothreitol (DTT), 0.1 mM stabilizing peptide and 2% dimethylsulfoxide was prepared.
4×GS1 solution: Fluormone™ GS1, which is a fluorescent glucocorticoid ligand, was diluted with GR screening buffer, whereby a 4 nM solution was prepared.
4×GR solution: Recombinant human GR was diluted with GR screening buffer, whereby a 16 nM solution was prepared.
(Preparation of Test Compound Solution)
After a test compound was dissolved in dimethylsulfoxide, it was diluted with GR screening buffer, whereby a 20 μM test compound solution was prepared.
(Test Method and Measurement Method)
1) The test compound solution was added in an amount of 10 μL into each well of a 384-well plate, and then, 4×GS1 solution and 4×GR solution were added in an amount of 5 μL into each well, respectively.
2) The plate was incubated in a dark place at room temperature for 2 to 4 hours.
3) By using a multimode plate reader, Analyst™ HT (manufactured by LJL Biosystems), fluorescence polarization of each well was measured. As the blank, a well containing GR screening buffer in place of the test compound and 4×GS1 solution was used.
4) The same procedure as that in the above 1) to 3) was carried out except that GR screening buffer was used in place of the test compound solution, and the obtained result was taken as the negative control.
5) The same procedure as that in the above 1) to 3) was carried out except that 2 mM dexamethasone was used in place of the test compound solution, and the obtained result was taken as the positive control.
(Calculation Equation of GR Binding Ratio)
A GR binding ratio (%) was calculated from the following equation. GR binding ratio(%)=100×[1−(fluorescence polarization of test compound solution−fluorescence polarization of positive control solution)/(fluorescence polarization of negative control solution−fluorescence polarization of positive control solution)] (Test Results and Discussion)

| inhibition at 10 µM | Structure (SMILES) |
| --- | --- |
| 99% | COc1cc(OS(=O)(=O)CCCCl)ccc1-c1ccc2c(c1COc1cc(F)ccc1C)N(C)C(=O)C(C)(C)N2 [Compound 1-54, 7-[4-(3-chloropropylsulfonyloxy)-2-methoxyphenyl]-8-(5-fluoro-2-methylphenoxymethyl)-1,3,3-trimethyl-3,4-dihydro-1H-quinoxalin-2-one] |
| 93% | COc1cc(OS(=O)(=O)C2CCCC2)ccc1-c1ccc2c(c1CNc1cc(F)ccc1C)N(C)C(=O)C(C)(C)N2 [Compound 1-57] |
| 95% | COc1cc(OS(=O)(=O)CCC(F)(F)F)ccc1-c1ccc2c(c1COc1cc([N+](=O)[O-])ccc1C)N(C)C(=O)C(C)(C)N2 [Compound 1-46] |
| 100% | CCCNCCCS(=O)(=O)Oc1ccc(-c2ccc3c(c2COc2cc(F)ccc2C)N(C)C(=O)C(C)(C)N3)c(OC)c1 [Compound 3-2, 8-(5-Fluoro-2-methylphenoxymethyl)-7-[2-methoxy-4-(3-propylaminopropylsulfonyloxy)phenyl]-1,3,3-trimethyl-3,4-dihydro-1H-quinoxalin-2-one] |
| 95% | COc1ccccc1NCc1c(-c2ccc(OS(C)(=O)=O)cc2OC)ccc2c1N(C)C(=O)C(C)(C)N2 [Compound 2-1, 7-(2-Methoxy-4-methylsulfonyloxyphenyl)-8-(2-methoxyphenylaminomethyl)-1,3,3-trimethyl-3,4-dihydro-1H-quinoxalin-2-one] |
| 93% | COc1ccccc1NCc1c(-c2ccc(OS(=O)(=O)C3CC3)cc2OC)ccc2c1N(C)C(=O)C(C)(C)N2 [Compound 2-3] |
| 100% | COc1ccc([N+](=O)[O-])cc1OCc1c(-c2ccc(OS(C)(=O)=O)cc2OC)ccc2c1N(C)C(=O)C(C)(C)N2 [Compound 1-38] |
| 99% | COc1cc(OS(=O)(=O)C(C)C)ccc1-c1ccc2c(c1COC(=O)c1ccc(C)s1)N(C)C(=O)C(C)(C)N2 [Compound 1-36] |
| 98% | COc1cc(OS(=O)(=O)C2CCCC2)ccc1-c1ccc2c(c1COc1cc([N+](=O)[O-])ccc1C)N(C)C(=O)C(C)(C)N2 [Compound 1-50] |
| 99% | COc1ccccc1NCc1c(-c2ccc(OS(=O)(=O)C3CCCC3)cc2OC)ccc2c1N(C)C(=O)C(C)(C)N2 [Compound 2-7, 7-(4-Cyclopentylsulfonyloxy-2-methoxyphenyl)-8-(2-methoxyphenylaminomethyl)-1,3,3-trimethyl-3,4-dihydro-1H-quinoxalin-2-one] |
| 100% | COc1ccc([N+](=O)[O-])cc1OCc1c(-c2ccc(OS(=O)(=O)C(C)C)cc2OC)ccc2c1N(C)C(=O)C(C)(C)N2 [Compound 1-42] |
| 100% | COc1ccc([N+](=O)[O-])cc1OCc1c(-c2ccc(OS(=O)(=O)CCC(F)(F)F)cc2OC)ccc2c1N(C)C(=O)C(C)(C)N2 [Compound 1-39] |
| 100% | COc1ccc([N+](=O)[O-])cc1OCc1c(-c2ccc(OS(=O)(=O)C3CC3)cc2OC)ccc2c1N(C)C(=O)C(C)(C)N2 [Compound 1-43] |
| 99% | CNCCN(C)CCCS(=O)(=O)Oc1ccc(-c2ccc3c(c2COc2cc(F)ccc2C)N(C)C(=O)C(C)(C)N3)c(OC)c1 [Compound 3-6, 8-(5-Fluoro-2-methylphenoxymethyl)-7-[2-methoxy-4-[3-[N-(2-methylaminoethyl)-N-methylamino]propylsulfonyloxy]phenyl]-1,3,3-trimethyl-3,4-dihydro-1H-quinoxalin-2-one] |
| 100% | COc1ccccc1NCc1c(-c2ccc(OS(=O)(=O)C(C)C)cc2OC)ccc2c1N(C)C(=O)C(C)(C)N2 [Compound 2-6, 7-(4-Isopropylsulfonyloxy-2-methoxyphenyl)-8-(2-methoxyphenylaminomethyl)-1,3,3-trimethyl-3,4-dihydro-1H-quinoxalin-2-one] |
| 98% | CCCS(=O)(=O)Oc1ccc(-c2ccc3c(c2CNc2ccccc2OC)N(C)C(=O)C(C)(C)N3)c(OC)c1 [Compound 2-8, 8-(2-Methoxyphenylaminomethyl)-7-(2-methoxy-4-propylsulfonyloxyphenyl)-1,3,3-trimethyl-3,4-dihydro-1H-quinoxalin-2-one] |
| 100% | COc1ccc([N+](=O)[O-])cc1OCc1c(-c2ccc(OS(=O)(=O)C3CCCC3)cc2OC)ccc2c1N(C)C(=O)C(C)(C)N2 [Compound 1-41] |

Second part, the molecule before the results:

| Structure (SMILES) | inhibition at 10 µM |
| --- | --- |
| COC(=O)CCS(=O)(=O)Oc1ccc(-c2ccc3c(c2COc2cc(F)ccc2C)N(C)C(=O)C(C)(C)N3)c(OC)c1 [Compound 1-10] | 100% |
| COc1cc(OS(=O)(=O)c2ccccc2Cl)ccc1-c1ccc2c(c1COc1cc(F)ccc1C)N(C)C(=O)C(C)(C)N2 [Compound 1-8] | 85% |
| COc1cc(OS(=O)(=O)c2ccccc2F)ccc1-c1ccc2c(c1COc1cc(F)ccc1C)N(C)C(=O)C(C)(C)N2 [Compound 1-26] | 95% |
| COc1cc(OS(=O)(=O)Cc2ccccc2)ccc1-c1ccc2c(c1COc1cc(F)ccc1C)N(C)C(=O)C(C)(C)N2 [Compound 1-9] | 100% |
| CCS(=O)(=O)Oc1ccc(-c2ccc3c(c2COc2cc(F)ccc2C)N(C)C(=O)C(C)(C)N3)c(OC)c1 [Compound 1-13] | 100% |
| CCCCS(=O)(=O)Oc1ccc(-c2ccc3c(c2COc2cc(F)ccc2C)N(C)C(=O)C(C)(C)N3)c(OC)c1 [Compound 1-12] | 100% |
| COc1cccc(S(=O)(=O)Oc2ccc(-c3ccc4c(c3COc3cc(F)ccc3C)N(C)C(=O)C(C)(C)N4)c(OC)c2)c1 [Compound 1-15] | 82% |
| COc1cc(OS(=O)(=O)Cc2ccc(Cl)cc2)ccc1-c1ccc2c(c1COc1cc(F)ccc1C)N(C)C(=O)C(C)(C)N2 [Compound 1-20] | 87% |
| CCCS(=O)(=O)Oc1ccc(-c2ccc3c(c2COC(=O)c2ccc(C)s2)N(C)C(=O)C(C)(C)N3)c(OC)c1 [Compound 1-35] | 95% |
| COc1cc(OS(=O)(=O)Cc2cccc(C)c2)ccc1-c1ccc2c(c1COc1cc(F)ccc1C)N(C)C(=O)C(C)(C)N2 [Compound 1-31] | 90% |
| COc1cc(OS(=O)(=O)Cc2ccccc2Cl)ccc1-c1ccc2c(c1COc1cc(F)ccc1C)N(C)C(=O)C(C)(C)N2 [Compound 1-27] | 99% |

Source: patent US8569493B2 (Santen Pharmaceutical Co., Ltd., priority 2007, dated 2013)
